Entries after “also recorded” stand apart in the source; their conditions may differ.
What was measured:
whole blood [1] = assay: Example 5: visual inspection of reaction system using fresh whole blood (hemolysis, adhesion, aggregation)
Description: In emergent tests, in particular, it is desirable to perform an assay immediately after blood collection, and erythrocytes in whole blood may be gradually hemolyzed during storage, possibly affecting the measurement. Therefore, examination was performed by using fresh blood immediately after blood collection.

whole blood [2] = assay: Example 3: visual inspection of reaction system with whole blood treatment solutions (hemolysis, adhesion and aggregation of magnetic particles)
Description: Examination was conducted on the assumption that a detergent was added to the reaction system by adding the detergent to a whole blood treatment solution beforehand. The whole blood treatment solutions were prepared by dissolving various detergents in 0.1 M Tris buffer (pH 8.0) containing 1% BSA and 0.15 M NaCl, and it was examined which detergent was suitable for the measurement method of the present invention.
Blood was collected by using an EDTA blood collection tube. Then, HBsAg was added at 1 U/ml to each of the whole blood stored at 4° C. for 3 days and plasma obtained from the whole blood by centrifugation, and a recovery test for HBsAg was performed using the luminescence intensity obtained in the measurement using plasma, which was taken as 100%.
The assay was performed in the same manner as in Example 2. Whole blood and each of the various whole blood treatment solutions were mixed at a ratio of 9:1, plasma was mixed with purified water at a ratio of 9:1, and HBsAg was immediately measured. Further, whole blood was mixed with the aforementioned buffer (0.1 M Tris buffer (pH 8.0) containing 1% BSA and 0.15 M NaCl) without adding a detergent instead of a whole blood treatment solution, and HBsAg was measured in the same manner. Presence or absence of hemolysis in the reaction system, non-specific adhesion of magnetic particles on the reaction vessel (made of polypropylene) and non-specific aggregation of magnetic particles during reaction were confirmed by visual inspection.

whole blood [3] = assay: Example 4: visual inspection of reaction system, types and concentrations of detergents (hemolysis, adhesion, aggregation); conditions: heparin whole blood stored overnight at 4° C.
Description: Blood was collected by using a blood collection tube treated with heparin as an anticoagulant. […] Each detergent was added at a concentration of 0.01, 0.1, 0.5, 1 and 10% as a final concentration after the mixing with whole blood. Presence or absence of hemolysis in the reaction system, non-specific adhesion of magnetic particles on the reaction vessel (made of polypropylene) and non-specific aggregation of magnetic particles during reaction were confirmed by visual inspection for each detergent in each reaction system, and recovery ratio with respect to the added amount was determined.

[4] = detergent 1% upon mixing of whole blood, EDTA whole blood stored at 4° C. for 3 days, visual inspection

For `O=S(=O)([O-])CCC[n+]1ccccc1`, the Hemolysis (whole blood [1]) was “Absent” and the Hemolysis (whole blood [2]) was “Absent”.
For `C[C@H](CCC(=O)NCCC[N+](C)(C)CCCS(=O)(=O)[O-])[C@H]1CC[C@H]2[C@@H]3[C@H](O)C[C@@H]4C[C@H](O)CC[C@]4(C)[C@H]3C[C@H](O)[C@]12C` [CHAPS, 3-{(3-Cholamidopropyl)dimethylammonio}-1-propanesulfonate], the Hemolysis (whole blood [2]; [4]) was “Present”.
With “Polyoxyethylene octyl phenyl ether [Triton X-100]” the Hemolysis (whole blood [2]; [4]) was “Present”, the Hemolysis (whole blood [3]; detergent 0.01% upon mixing of whole blood) was “Absent” and the Hemolysis (whole blood [3]; detergent 0.1% upon mixing of whole blood) was “Absent”. For the same compound, the Hemolysis (whole blood [3]; detergent 0.5% upon mixing of whole blood) was “hemolysis was observed; also recorded: Present”, the Hemolysis (whole blood [3]; detergent 1% upon mixing of whole blood) was “Present” and the Hemolysis (whole blood [3]; detergent 10% upon mixing of whole blood) was “Present”.
With Polyoxyethylene stearyl ether [Brij 78] the Hemolysis (whole blood [2]; [4]) was “Present”.
For Saponin, the Hemolysis (whole blood [2]) was “Present”.

From patent publication US7338809B2, “Method for assaying whole blood” (Mitsubishi Kagaku Iatron, Inc., priority 2001, dated 2008)
